Measurements reported in EP4810493A1, “HETEROCYCLIC CARBONYL DERIVATIVE MODULATOR, PREPARATION METHOD THEREFOR, AND USE THEREOF” (Shanghai Hansoh Biomedical Co., Ltd., priority 2023, dated 2025).
Read-outs that look alike come from different tables or passages of the source.

Biological target: T1, M4 receptor (Homo sapiens, UniProt P08173)
T1 construct: expressed in transfected cells
T1 sequence (P08173 1-479): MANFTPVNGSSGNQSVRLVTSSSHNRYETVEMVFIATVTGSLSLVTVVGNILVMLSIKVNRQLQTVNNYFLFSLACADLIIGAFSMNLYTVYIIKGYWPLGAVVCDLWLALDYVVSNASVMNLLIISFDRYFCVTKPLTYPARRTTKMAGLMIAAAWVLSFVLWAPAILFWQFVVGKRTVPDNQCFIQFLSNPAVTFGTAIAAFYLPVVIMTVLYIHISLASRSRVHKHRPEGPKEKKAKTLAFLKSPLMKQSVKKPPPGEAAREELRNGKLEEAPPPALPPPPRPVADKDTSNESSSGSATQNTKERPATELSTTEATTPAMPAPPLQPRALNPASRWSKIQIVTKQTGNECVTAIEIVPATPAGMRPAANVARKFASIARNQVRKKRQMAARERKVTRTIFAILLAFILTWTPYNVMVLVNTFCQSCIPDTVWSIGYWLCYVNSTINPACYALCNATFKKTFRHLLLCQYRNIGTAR
Experiment: Calcium flux (FLIPR) potentiation assay in cells stably expressing M4 receptor
Assay type: cell-based
Excerpt: Test example 1. Determination of the effect of the compounds of the present invention on calcium current in cells stably expressing M1-M5 receptors
To detect the potentiating effect of compounds on calcium flux activity in CHO-K1/human M1/3/5 and CHO-K1/Gα15 M2/4 cells.
384-well assay plate, 384-well plate, FLIPR Tip, FLIPR Penta plate reader, Dispendix non-contact nanoliter dispensing system (liquid handling workstation), liquid handler.
Ham's F-12 Nutrient Mix, foetal bovine serum, P/S (Gibco: 15140122), HBSS (Gibco: 14025076), HEPES (Gibco: 15630080), FLIPR calcium 6 assay kit (Molecular Devices: R8190), Probenecid (PBA) (Invitrogen: P36400), Acetylcholine chloride (Sigma: A6625-25G) Complete culture medium: DMEM + 10% FBS + 1X P/S; Cell seeding medium: DMEM + 10% FBS + 1X PS; Assay buffer 1: 1X HBSS + 20 mM HEPES +2.5 mM Probenecid; Assay buffer 2: 1X HBSS + 20 mM HEPES; Cell line: CHO-K1/M1; CHO-K1/M2/Gα15; CHO-K1/M3; CHO-K1/M4/Gα15; CHO-K1/M5.
FLIPR calcium 6 assay kit: Component A was dissolved in Assay buffer 1, and the mixture was shaken for 1-2 min, sub-packaged and stored at -20°C.
• 1) CHO-K1/M1; CHO-K1/M2/Gα15; CHO-K1/M3; CHO-K1/M4/Gα15; and CHO-K1/M5 cell lines were cultured separately in complete culture medium at 37°C, 5% CO2 to 70%-90% confluency. • 2) The cells were digested and resuspended in cell seeding medium, 5,000 cells/well/20 µL were seeded into a 384-well cell culture plate, and the cells were cultured at 37°C, 5% CO2 for 24 hours. • 3) The cell culture plate was taken out of the CO2 incubator and equilibrated at room temperature for 10 minutes. • 4) Component A solution was removed and allowed to equilibrate to room temperature. 20 µL of Component A solution was added to each well of the cell culture plate, and incubated at room temperature in the dark for 1 hour. • 5) Acetylcholine chloride (ACh), a muscarinic receptor agonist, was prepared in Assay buffer 2 at EC20/EC100 concentrations; subsequently, 30 µL of the prepared muscarinic receptor agonist was added to a 384-well agonist plate (PE: 6008590) using a Multidrop Combi; the working solutions of the positive control compound and the test compound were serially diluted at a 3.16-fold gradient and dispensed (450 nL) into a 384-well compound plate (PE: 6008590) using the Dispendix liquid handling workstation; 30 µL of Assay buffer 2 was added to the 384-well compound plate (PE: 6008590) using the Multidrop Combi; the positive control compound and the test compound were diluted to 6X, mixed by shaking, and placed at room temperature until use. • 6) 10 µL of the diluted 6X compound was added to the assay wells of the corresponding 384-well cell plate using the FLIPR Penta, followed by a 2-minute incubation. • 7) 10 µL of the prepared muscarinic receptor agonist was added to the assay wells of the corresponding 384-well cell plate using the FLIPR Penta, with simultaneous data acquisition.
FLIPR Penta was used to read and collect the fluorescence signal value (RFU). The maximum RFU value was used to calculate the percent activation data based on the readings of the Low control (DMSO control group) and High control (ACh EC100) experimental groups {% activation rate = (RFUsample - RFUlow control) / (RFUhigh control - RFUlow control)×100}. The test compound was diluted 3.16X in the reaction system to generate 11 concentration points ranging from 30 µM to […].

[1] = CHO-K1/M4/Gα15 cells, potentiation of acetylcholine (EC20) calcium flux, read-out: M4 FLIPR EC50

Row | Compound | EC50 [1] | EC50
1 | Cc1c2c(c3ccnn3c1C)CN(C(=O)CC1CN(c3ccnc(OCC(F)F)c3)C1)C2 [Example 203] | 90 nM | –
2 | Cc1c2c(c3ccnn3c1C)CN(C(=O)CC1CN(c3ccnc(C(F)F)c3)C1)C2 [Example 208] | 42.6 nM | –
3 | Cc1c2c(c3ncnn3c1C)CN(C(=O)CC1CN(c3ccc(C(F)(F)F)cn3)C1)C2 [Example 217] | 99.7 nM | –
4 | COc1cc(N2CC(CC(=O)N3Cc4c(C)c(C)n5nccc5c4C3)C2)c(F)cn1 [Example 220] | 53.5 nM | –
5 | Cc1c2c(c3ccnn3c1C)CN(C(=O)CC1CN(c3ccnc(OC4CC4)c3)C1)C2 [Example 221] | 94.3 nM | –
6 | Cc1c2c(c3ccnn3c1C)CN(C(=O)CC1CN(c3ccc4nc(C(F)(F)F)cn4n3)C1)C2 [Example 227] | 90.4 nM | –
7 | Cc1nc2c3c(c(C)c(C)n2n1)CN(C(=O)[C@@H]1CCN(c2ccncn2)C1)C3 [Example 232] | 36.4 nM | –
8 | COc1nccc(N2CC(OC(=O)N3Cc4c(C)c(C)n5ncnc5c4C3)C2)n1 [Example 239] | 42.6 nM | –
9 | [2H]C([2H])([2H])Oc1cc(N2CC(OC(=O)N3Cc4c(C)c(C)n5ncnc5c4C3)C2)ccn1 [Example 247] | 96.3 nM | –
10 | COc1ccc(N2CC(CC(=O)N3Cc4c(C)c(C)n5ncnc5c4C3)C2)cn1 [Example 264] | 47.8 nM | –
11 | Cc1c2c(c3ncnn3c1C)CN(C(=O)C1CC(Nc3ccnc(C(F)(F)F)c3)C1)C2 (centres unmarked) [Example 284-P2, (5,6-Dimethyl-7,9-dihydro-8H-pyrrolo[3,4-c][1,2,4]triazolo[1,5-a]pyridin-8-yl)(3-((2-(trifluoromethyl)pyridin-4-yl)amino)cyclobutyl)methanone] | 59.7 nM | –
12 | COc1c(C)c2c(n3ncnc13)CN(C(=O)CC1CN(c3ccnc(C(F)(F)F)c3)C1)C2 [Example 292, 1-(4-Methoxy-5-methyl-7,8-dihydro-6H-[1,2,4]triazolo[5,1-f]pyrrolo[4,3-b]pyridin-7-yl)-2-{1-[2-(trifluoromethyl)pyridin-4-yl]azetidin-3-yl}ethan-1-one] | 53.5 nM | –
13 | Cc1c2c(n3ncnc3c1Cl)CN(C(=O)CC1CN(c3ccnc(C(F)(F)F)c3)C1)C2 [Example 293, 1-(4-Chloro-5-methyl-7,8-dihydro-6H-[1,2,4]triazolo[5,1-f]pyrrolo[4,3-b]pyridin-7-yl)-2-{1-[2-(trifluoromethyl)pyridin-4-yl]azetidin-3-yl}ethan-1-one] | 99.7 nM | –
14 | Cc1c2c(c3ncnn3c1C)CN(C(=O)CC1CN(c3ncc(F)cn3)C1)C2 [Example 300] | 35.7 nM | –
15 | Cc1c2c(c3ncnn3c1C)CN(C(=O)CC1CN(c3ncc(F)cc3F)C1)C2 [Example 301] | – | 12.4 nM
16 | Cc1c2c(c3ncnn3c1C)CN(C(=O)CC1CN(c3ccc4c(ccn4C)c3)C1)C2 [Example 309] | – | 28.1 nM
17 | CCn1ccc2cc(N3CC(CC(=O)N4Cc5c(C)c(C)n6ncnc6c5C4)C3)ccc21 [Example 310] | 91.2 nM | –

Continued by falling EC50 [1], values first:

Row | EC50 [1] | Compound | EC50
18 | 35.3 nM | CCOc1cc(N2CC(CC(=O)N3Cc4c(C)c(C)n5ncnc5c4C3)C2)ccn1 [Example 235] | –
19 | 35.1 nM | CCOc1cc(N2CC(OC(=O)N3Cc4c(C)c(C)n5ncnc5c4C3)C2)ccn1 [Example 238] | –
20 | 34.1 nM | Cc1c2c(c3ncnn3c1C)CN(C(=O)CC1CN(c3ncc(C4CC(F)(F)C4)cn3)C1)C2 [Example 320] | –
21 | 33 nM | Cc1c2c(c3ncnn3c1C)CN(C(=O)CC1CN(c3cc(C(F)(F)F)ncc3Cl)C1)C2 [Example 204] | –
22 | 29.9 nM | Cc1nc(Cl)c(C)c(N2CC(CC(=O)N3Cc4c(C)c(C)n5ncnc5c4C3)C2)n1 [Example 226] | –
23 | 26.8 nM | Cc1c2c(c3ncnn3c1C)CN(C(=O)C1CC(Nc3ncc(C(F)(F)F)cn3)C1)C2 (centres unmarked) [Example 299, (5,6-Dimethyl-7,9-dihydro-8H-pyrrolo[3,4-c][1,2,4]triazolo[1,5-a]pyridin-8-yl)(3-((5-(trifluoromethyl)pyrimidin-2-yl)amino)cyclobutyl)methanone] | –
24 | 23.2 nM | Cc1c2c(c3ncnn3c1C)CN(C(=O)CC1CN(c3cnc4c(c3)CCCO4)C1)C2 [Example 302] | –
25 | 16.3 nM | Cc1nc2c3c(c(C)c(C)n2n1)CN(C(=O)CC1CN(c2ccnc(OC4CC4)c2)C1)C3 [Example 230] | –
26 | 15.1 nM | Cc1c2c(c3ncnn3c1C)CN(C(=O)CC1CN(c3ccc(C4CC4)nc3)C1)C2 [Example 312] | –
27 | 13.8 nM | Cc1c2c(c3ncnn3c1C)CN(C(=O)CC1CN(c3ccc(OC4CC4)nc3)C1)C2 [Example 303] | –
28 | 12.4 nM | Cc1c2c(c3ncnn3c1C)CN(C(=O)CC1CN(c3ccc4nc(C(F)(F)F)cn4n3)C1)C2 [Example 213] | –
29 | 11.2 nM | Cc1ccc(N2CC(CC(=O)N3Cc4c(C)c(C)n5ncnc5c4C3)C2)cn1 [Example 318] | –
30 | 11.1 nM | Cc1c2c(c3ncnn3c1C)CN(C(=O)CC1CN(c3ccc4c(cnn4C4CC4)c3)C1)C2 [Example 306] | –
31 | 10.4 nM | CCc1ccc(N2CC(CC(=O)N3Cc4c(C)c(C)n5ncnc5c4C3)C2)cn1 [Example 313] | –
32 | 6.8 nM | Cc1c2c(c3ncnn3c1C)CN(C(=O)CC1CN(c3ccc(OC(F)F)nc3)C1)C2 [Example 305] | –
